This is an account of results in patent US10730851B2, “Polymorph of triaryldimethylpiperazine dihydrochloride and preparation method and application thereof” (priority 2016, dated 2020).

Molecules are shown by their SMILES. Structures can show the parent of a compound that is named as a salt.

Data set [1] can be described thus: Relative bioavailability test. Format: in vivo, SPF-grade SD rats. Particulars: rat, in vivo, po. Here is the method:
HPLC-MS/MS method is used to detect the blood drug concentration of target drugs in SPF-grade SD rats, and the relative bioavailability of 0.5% CMC-Na suspension of a free base and 0.5% CMC-Na solution of a polymorph form P are calculated and compared.
60.46 mg of a free base is accurately weighed and placed into a 15 mL centrifuge tube, 12 mL of 0.5% CMC-Na solution is measured and added into the centrifuge tube with a measuring cylinder, vortexed for 5 min, and ultrasonically dispersed for 15 min to obtain 0.5% CMC-Na suspension of free base with a concentration of 5.04 mg/ml, which is currently formulated when using and vibrated at any time during administration.
60.05 mg of a polymorph form P is accurately weighed and placed into a 15 mL centrifuge tube, 12 mL of 0.5% CMC-Na solution is measured and added into the centrifuge tube with a measuring cylinder, vortexed for 5 min, and ultrasonically dispersed for 15 min to obtain 0.5% CMC-Na solution of 5.00 mg/mL polymorph form P, which is currently formulated when using.
Twelve SPF-grade SD rats are selected and randomly divided into a free base group and a polymorph form P group with 6 rats in each group (both male and female). Animals are fasted for 12 h but have free access to water. Weighing is performed and, the administration volume of each rat is calculated according to the animal weight, so that the administration dose is 20 mg/kg·bw. During administration, the drugs are each administrated by gavage, and 0.5% CMC-Na suspension/solution of the above two target drugs are extracted by 2 mL syringe respectively. The gavage needle is inserted into the stomach from the corner of the rat's mouth and pushed the solution thereto.
Blood is collected from the fundus venous plexus of rats at 0.2 mL before (0 h) and 0.5, 1, 2, 4, 6, 8, 12 and 24 h after administration, anticoagulated with 300 IU/mL heparin (1:20) and centrifuged (3000 r/min) for 15 min. After plasma separation, the blood drug concentration of the target drug is determined by HPLC-MS/MS.
Referring to the above-mentioned bioavailability test of the polymorph form P, the bioavailability tests of polymorph forms F, O, B and J are conducted respectively. Different from the bioavailability test of the polymorph form P, rats are given 0.5% CMC-Na solution of the polymorph form F, O, B or J by gavage respectively. Other operations are the same as the above bioavailability test.

Data set [2] can be described thus: Stability test: physical stability by XRPD under four environmental conditions. The data set is classed as physicochemical. The note with it: for Crystal form, after nitrogen purging at 60° C. for 2 h / Crystal form, after 40° C./75% RH for one week / Crystal form, after drying at 60 ° C. overnight / Crystal form, after nitrogen purging overnight at room: XRPD; for Crystal form, after nitrogen purging at 60° C. for 2 h / Crystal form, after drying at 60 ° C. overnight / Crystal form, after nitrogen purging overnight at room: dihydrochloride; for Physical stability after standing under the four conditions: conditions 1 to 4; for Crystal form, after 40° C./75% RH for one week / Crystal form, after drying at 60 ° C. overnight: open bottle; for Crystal form, after nitrogen purging overnight at room: room temperature. Here is the method: The physical stability of polymorph forms P, F and J are studied under the following four different environmental conditions.
10 mg to 15 mg of polymorph forms P, F and J are each weighed and placed in a 1.5 mL glass bottle, and the glass bottle is placed open for one week in a constant temperature and humidity box under the conditions of 40° C. and 75% RH, and then XRPD tests are carried out on the polymorph forms P, F and J to determine whether the crystal forms of the samples change. FIGS. 11 to 13 are XRPD comparative patterns of polymorph forms P, F and J before and after one week of storage at 40° C. and 75% RH, respectively.
10 mg to 15 mg of polymorph forms P, F and J are each weighed and placed in a 1.5 mL glass bottle, and the glass bottle is placed open overnight in a constant temperature drying oven under the condition of 60° C. Then XRPD test is carried out on the polymorph forms P, F and J to determine whether the crystal forms of the samples change. FIGS. 14 to 16 are XRPD comparative patterns of the polymorph forms P, F and J before and after being placed overnight under a drying condition of 60° C., respectively.
10 mg to 15 mg of polymorph forms P, F and J are each weighed and placed in a 1.5 mL glass bottle, and nitrogen is purged for 2 h under the condition of 60° C. in a nitrogen blower, and then XRPD tests are carried out on the polymorph forms P, F and J to determine whether the crystal forms of the samples change. FIGS. 17 to 19 are XRPD comparative patterns of the polymorph forms P, F and J before and after nitrogen purging for 2 h at 60° C., respectively.
10 mg to 15 mg of polymorph forms P, F and J are each weighed and placed in a 3 mL glass bottle, nitrogen is blown overnight at room temperature in a nitrogen blower, and then XRPD tests are carried out on the polymorph forms P, F and J to determine whether the crystal forms of the samples change. FIGS. 20 to 22 are XRPD comparative patterns of the polymorph forms P, F and J before and after nitrogen purging overnight at room temperature, respectively.
Judging from XRPD comparative patterns of various polymorph forms, the physical stability properties of the polymorph forms P, F and J are obtained, and the results are shown in Table 8.

Data set [3] in a line: Dynamic moisture adsorption. The data set is classed as physicochemical.
The next data set can be described thus: Rough solubility test. The data set is classed as physicochemical. Particulars: water, thermodynamic from solid. Here is the method:
2.0 mg of a free base and 2.0 mg of polymorph forms B, F, P, J and O are respectively taken and placed in 3.0 mL glass bottles. Then the solvent methanol is added step by step, and ultrasound is performed to observe whether the sample is completely dissolved. If the sample is still not completely dissolved after 2.0 mL of solvent is added, the test is stopped to measure the rough solubility of the free base, polymorph forms B, F, P, J and O in methanol respectively.
Using the same method, the rough solubility of the free base, polymorph forms B, P, F, J and O in other organic solvents or water listed in Table 6 are determined respectively.

With `CC1CCN(C(=O)c2ccc([C@H](c3cccc(O)c3)N3C[C@@H](C)N(Cc4cccc(F)c4)C[C@@H]3C)cc2)CC1` [Polymorph form P, (4-((R)-((2S,5R)-4-(3-fluorobenzyl)-(2,5-dimethylpiperazine-1-yl)(3-hydroxyphenyl)methyl)phenyl)(4-methylpiperidine-1-yl)methanone dihydrochloride], in data set [1] (both sexes, SD, 20 mg/kg), the area under the curve AUC(0-t) (as a rule, exposure summed from dosing to a finite time, without extrapolation to infinity) is 584 ng·h/mL; the Cmax (usually the peak of the concentration-time curve) is 98.1 ± 25.2 ng/mL; the time to peak (Tmax) – broadly, the time from dosing to the highest level – turned out to be 1.3 ± 0.5 h; the bioavailability came to 202%. This compound had a t1/2z in data set [1] (both, SD, 20 mg/kg) of 2.5 ± 0.8 h. Further, in data set [2], the “Crystal form, after nitrogen purging at 60° C. for 2 h” value is recorded as “invariability”; the “Physical stability after standing under the four conditions” value is recorded as “good stability”; the “Crystal form, after 40° C./75% RH for one week” value is on record as “invariability”; the “Crystal form, after drying at 60 ° C. overnight” value is listed as “invariability”. Further, the “Crystal form, after nitrogen purging overnight at room” value in data set [2] is listed as “invariability”.
With `CC1CCN(C(=O)c2ccc([C@H](c3cccc(O)c3)N3C[C@@H](C)N(Cc4cccc(F)c4)C[C@@H]3C)cc2)CC1` [Polymorph form O, (4-((R)-((2S,5R)-4-(3-fluorobenzyl)-(2,5-dimethylpiperazine-1-yl)(3-hydroxyphenyl)methyl)phenyl)(4-methylpiperidine-1-yl)methanone dihydrochloride], the “bioavailability compared with free base” value in data set [1] is recorded as “better bioavailability than free base”. For the same compound, the “Crystal form change under dynamic moisture adsorption” value in data set [3] is listed as “change into amorphous”.
With `CC1CCN(C(=O)c2ccc([C@H](c3cccc(O)c3)N3C[C@@H](C)N(Cc4cccc(F)c4)C[C@@H]3C)cc2)CC1` [Polymorph form F, (4-((R)-((2S,5R)-4-(3-fluorobenzyl)-(2,5-dimethylpiperazine-1-yl)(3-hydroxyphenyl)methyl)phenyl)(4-methylpiperidine-1-yl)methanone dihydrochloride], the “bioavailability compared with free base” value in data set [1] is “better bioavailability than free base”. Moreover, in data set [2], the “Crystal form, after nitrogen purging at 60° C. for 2 h” value is listed as “invariability”; the “Physical stability after standing under the four conditions” value is “good stability”; the “Crystal form, after 40° C./75% RH for one week” value is given as “invariability”; the “Crystal form, after drying at 60 ° C. overnight” value was “invariability”. Further, the “Crystal form, after nitrogen purging overnight at room” value in data set [2] is reported as “invariability”.
Take `CC1CCN(C(=O)c2ccc([C@H](c3cccc(O)c3)N3C[C@@H](C)N(Cc4cccc(F)c4)C[C@@H]3C)cc2)CC1` [Polymorph form B, (4-((R)-((2S,5R)-4-(3-fluorobenzyl)-(2,5-dimethylpiperazine-1-yl)(3-hydroxyphenyl)methyl)phenyl)(4-methylpiperidine-1-yl)methanone dihydrochloride]: in data set [1], the “bioavailability compared with free base” value is “better bioavailability than free base”. Moreover, the “Crystal form change under dynamic moisture adsorption” value in data set [3] is “change into amorphous”. For the same compound, the Solubility – broadly, how much of the substance goes into solution per volume – in the data set “Rough solubility test” lay within 6400 to 7200 µg/mL.
As to `CC1CCN(C(=O)c2ccc([C@H](c3cccc(O)c3)N3C[C@@H](C)N(Cc4cccc(F)c4)C[C@@H]3C)cc2)CC1` [Polymorph form J, (4-((R)-((2S,5R)-4-(3-fluorobenzyl)-(2,5-dimethylpiperazine-1-yl)(3-hydroxyphenyl)methyl)phenyl)(4-methylpiperidine-1-yl)methanone dihydrochloride], the “bioavailability compared with free base” value in data set [1] is on record as “better bioavailability than free base”. For the same compound, the “Crystal form, after 40° C./75% RH for one week” value in data set [2] is “invariability”.
